These results are taken from patent US9949980B2, “Drugs to prevent HPV infection” (Wisconsin Alumni Research Foundation, priority 2008, dated 2018).

The term viability denotes a read-out of living cells in per cent, often relative to untreated cells.

One data set relates to HPV16 pseudoviruses. Put plainly: microbe, parasite or virus in culture. Format: cell-based. The following applies: Human papillomavirus 16, HEK-293T, 48 h. How it is done: (§1) FIG. 1. High throughout screen (HTS) for identifying inhibitors of HPV infection. Shown is a schematic showing basic steps in the HTS. […] Briefly, HPV16 pseudoviruses containing the SEAP reporter genes are analyzed for their ability to infect as judged by the levels of secreted alkaline phosphatase in the tissue culture supernatant (light grey arrows). Cell viability was assessed in parallel on the same wells (dark grey arrows). In the specific HTS carried out in this study, the compounds were added at 3 uM/1% DMSO final concentration (black arrow) 4 hours prior to infection.
(§2) After incubation at 37° C. for 24 hrs, 35 μL of media was removed. […] Cells were incubated at 37° C. for 48 hrs. 2.5 μL of media was collected for SEAP assay using a PHOSPHA-LIGHT chemiluminescent alkaline phosphatase assay (Applied Biosystems). Cell viability was determined using the CellTiter Glo Luminescent Cell Viability Assay™ (Promega).

The next data set in a line: in vitro. The following applies: human, Viability (CelTiter Glow). How it is done: as §1, §2
Setting [1] is: read-out: Infectivity (SEAP Activity), 3 μM HTS standard concentration, 293T cells, 48 hrs.
Setting [2] is: read-out: Infectivity vs. viability, 3 μM HTS standard concentration, ratio infectivity/viability.

Read-outs that look alike come from different tables or passages of the source.

Consider `O=C1NCCCC1c1n[nH]c(=S)n1Cc1ccccc1` (centres unmarked) [BTB 00471, 3-[4-(phenylmethyl)-5-sulfanylidene-1H-1,2,4-triazol-3-yl]piperidin-2-one], for which the activity at 3 µM in the data set with HPV16 pseudoviruses (setting [1]) worked out at 41%; with HPV16 pseudoviruses (setting [2]) it was 37.5%. Besides, the viability at 52 h, 3 μM in “in vitro” is 109%.

For the compound `CN(C)C=C=C(O)c1ccccc1C(=O)c1ccc(Cl)cc1` [BTB 08556, (4-chlorophenyl)-[2-(3-dimethylamino-1-hydroxypropa-1,2-dienyl)phenyl]methanone], the activity at 3 µM in the data set with HPV16 pseudoviruses (setting [1]) worked out at 55.3%; in the data set with HPV16 pseudoviruses (setting [2]) it was 52%. Besides, in “in vitro”, the viability at 52 h, 3 μM was determined as 106%.

`CC(C)(C)NC(=O)C=Cc1cc([N+](=O)[O-])ccc1Sc1ccc(C(F)(F)F)cn1` [BTB 09390, N1-(tert-butyl)-3-(5-nitro-2-{[5-(trifluoromethyl)-2-pyridyl]thio}phenyl)acrylamide]: the figures for the activity at 3 µM in the data set on HPV16 pseudoviruses (setting [1]) and with HPV16 pseudoviruses (setting [2]) were 28.9% and 35.6%, respectively. Besides, in the data set “in vitro”, the viability at 52 h, 3 μM worked out at 81.2%.

On to `N#CCCOCc1cccc2ccccc12` [Compound 5102121, 3-(1-naphthylmethoxy)propanenitrile], for which the activity at 3 µM in the data set on HPV16 pseudoviruses (setting [1]) turned out to be 55.8%; in the data set on HPV16 pseudoviruses (setting [2]) it was 50.6%. The viability at 52 h, 3 μM in “in vitro” worked out at 110%.

With `CC(=NNC(N)=O)C1CC1(C)C(C)(C)C` (centres unmarked) [Compound 5104160, 1-(2-tert-butyl-2-methylcyclopropyl)-1-ethanone semicarbazone], the activity at 3 µM amounted to 63% with HPV16 pseudoviruses (setting [1]) and 56.2% with HPV16 pseudoviruses (setting [2]). The viability at 52 h, 3 μM in “in vitro” was 112%.

Regarding `O=S(=O)(Nc1nc2ccccc2nc1Nc1ccccc1)c1ccccc1` [Compound 5123541, N-(3-anilino-2-quinoxalinyl)benzenesulfonamide], the activity at 3 µM was found to be 47% in the data set on HPV16 pseudoviruses (setting [1]) and 44.5% in the data set on HPV16 pseudoviruses (setting [2]). The viability at 52 h, 3 μM in the data set “in vitro” was 106%.

For the compound `O=C(NC(NC(=S)Nc1ccccc1[N+](=O)[O-])C(Cl)(Cl)Cl)c1ccco1` (centres unmarked) [Compound 5143070, N-[2,2,2-trichloro-1-({[(2-nitrophenyl)amino]carbonothioyl}amino)ethyl]-2-furamide], the activity at 3 µM in the data set with HPV16 pseudoviruses (setting [1]) came to 43.7%; with HPV16 pseudoviruses (setting [2]), 40.5%. Besides, the viability at 52 h, 3 μM in the data set “in vitro” amounted to 108%.

Take `O=C(Nc1ccc(Cl)cc1)Nc1ccc([N+](=O)[O-])cc1Br` [Compound 5191771, N-(2-bromo-4-nitrophenyl)-N′-(4-chlorophenyl)urea]: the activity at 3 µM came to 39.9% with HPV16 pseudoviruses (setting [1]) and 41.9% in the data set on HPV16 pseudoviruses (setting [2]). Besides, in the data set “in vitro”, the viability at 52 h, 3 μM turned out to be 95.2%.

`O=C(NC(=S)Nc1ccc([N+](=O)[O-])cc1O)C12CC3CC(CC(C3)C1)C2` [Compound 5197089, N-{[(2-hydroxy-4-nitrophenyl)amino]carbonothioyl}-1-adamantanecarboxamide]: the activity at 3 µM turned out to be 2.01% with HPV16 pseudoviruses (setting [1]) and 2.99% with HPV16 pseudoviruses (setting [2]). In “in vitro”, the viability at 52 h, 3 μM turned out to be 67%.

As for `CCN(C(=O)c1ccccc1Cl)c1ccccc1` [Compound 5272305, 2-chloro-N-ethyl-N-phenylbenzamide], the activity at 3 µM in the data set on HPV16 pseudoviruses (setting [1]) was 47.4%; in the data set with HPV16 pseudoviruses (setting [2]) it was 45.6%. Moreover, in the data set “in vitro”, the viability at 52 h, 3 μM stood at 104%.

As for `O=C(CSc1nc2cc([N+](=O)[O-])ccc2[nH]1)Nc1ccc2c(c1)OCO2` [Compound 5349092, N-1,3-benzodioxol-5-yl-2-[(5-nitro-1H-benzimidazol-2-yl)thio]acetamide], the activity at 3 µM in the data set on HPV16 pseudoviruses (setting [1]) is 52.5%; in the data set on HPV16 pseudoviruses (setting [2]), 51.1%. In addition, the viability at 52 h, 3 μM in the data set “in vitro” was determined as 103%.

In the case of `NC(=O)NC(c1ccccc1)c1ccccc1Br` (centres unmarked) [Compound 5571356, N-[(2-bromophenyl)(phenyl)methyl]urea], the activity at 3 µM with HPV16 pseudoviruses (setting [1]) is 59.1%; in the data set on HPV16 pseudoviruses (setting [2]) it was 56%. In the data set “in vitro”, the viability at 52 h, 3 μM was determined as 106%.

`COc1cc(C=C2C(=O)NN(c3ccc(Cl)c(Cl)c3)C2=O)c([N+](=O)[O-])cc1OC` [Compound 5581710, 1-(3,4-dichlorophenyl)-4-(4,5-dimethoxy-2-nitrobenzylidene)-3,5-pyrazolidinedione]: the activity at 3 µM worked out at 23.9% in the data set with HPV16 pseudoviruses (setting [1]) and 31.9% in the data set with HPV16 pseudoviruses (setting [2]). Moreover, the viability at 52 h, 3 μM in “in vitro” amounted to 75.1%.

Consider `O=C1NN(c2ccc(Cl)c(Cl)c2)C(=O)C1=Cc1ccc(Cl)c([N+](=O)[O-])c1` [Compound 5585119, 4-(4-chloro-3-nitrobenzylidene)-1-(3,4-dichlorophenyl)-3,5-pyrazolidinedione], for which the activity at 3 µM amounted to 54.4% in the data set on HPV16 pseudoviruses (setting [1]) and 50.5% with HPV16 pseudoviruses (setting [2]). The viability at 52 h, 3 μM in “in vitro” is 108%.

As to `Cc1ccc(NC(=O)Cc2ccc(F)cc2)cc1` [Compound 5585700, 2-(4-fluorophenyl)-N-(4-methylphenyl)acetamide], the activity at 3 µM in the data set with HPV16 pseudoviruses (setting [1]) is 55.4%; in the data set with HPV16 pseudoviruses (setting [2]) it was 52.5%. The viability at 52 h, 3 μM in the data set “in vitro” was 105%.

Consider `O=[N+]([O-])c1cccc(C2Nc3ccc(Cl)cc3C3C=CCC32)c1` (centres unmarked) [Compound 5658856, 8-chloro-4-(3-nitrophenyl)-3a,4,5,9b-tetrahydro-3H-cyclopenta[c]quinoline], for which the activity at 3 µM worked out at 14.4% with HPV16 pseudoviruses (setting [1]) and 19.1% in the data set on HPV16 pseudoviruses (setting [2]). In addition, the viability at 52 h, 3 μM in the data set “in vitro” was 75.7%.

As to `COc1cccc(C(=O)Nc2ccc3oc(-c4ccc(F)cc4Cl)nc3c2)c1` [Compound 5715107, N-[2-(2-chloro-4-fluorophenyl)-1,3-benzoxazol-5-yl]-3-methoxybenzamide], the activity at 3 µM was determined as 42.5% with HPV16 pseudoviruses (setting [1]) and 38.2% in the data set with HPV16 pseudoviruses (setting [2]). Also, the viability at 52 h, 3 μM in the data set “in vitro” turned out to be 111%.

For the compound `CCOc1ccc(N(CC(=O)Nc2c(C)cccc2C)S(=O)(=O)c2ccc(SC)cc2)cc1` [Compound 5740080, N~1~-(2,6-dimethylphenyl)-N~2~-(4-ethoxyphenyl)-N~2~-{[4-(methylthio)phenyl]sulfonyl}glycinamide], the activity at 3 µM in the data set on HPV16 pseudoviruses (setting [1]) amounted to 42.2%; in the data set on HPV16 pseudoviruses (setting [2]), 40.7%. Also, the viability at 52 h, 3 μM in the data set “in vitro” is 104%.

`O=C(Nc1ccccc1)Nc1nnc(Cc2ccc(F)cc2)s1` [Compound 5789300, N-[5-(4-fluorobenzyl)-1,3,4-thiadiazol-2-yl]-N′-phenylurea]: the activity at 3 µM in the data set on HPV16 pseudoviruses (setting [1]) is 40.1%; in the data set with HPV16 pseudoviruses (setting [2]) it was 40.8%. For the same compound, the viability at 52 h, 3 μM in “in vitro” amounted to 98.4%.

Turning to `O=C(Nc1sc2c(c1C(=O)NCCc1ccccc1)CCCCC2)c1ccccc1F` [Compound 5794700, 2-[(2-fluorobenzoyl)amino]-N-(2-phenylethyl)-5,6,7,8-tetrahydro-4H-cyclohepta[b]thiophene-3-carboxamide], the activity at 3 µM was 49.2% with HPV16 pseudoviruses (setting [1]) and 45.1% with HPV16 pseudoviruses (setting [2]). Further, in the data set “in vitro”, the viability at 52 h, 3 μM worked out at 109%.

`COc1ccc(Cl)cc1C(=O)Nc1ccc(NC(=O)c2ccc(C(C)(C)C)cc2)cc1` [Compound 5795860, N-{4-[(4-tert-butylbenzoyl)amino]phenyl}-5-chloro-2-methoxybenzamide]: the results for the activity at 3 µM with HPV16 pseudoviruses (setting [1]) and in the data set with HPV16 pseudoviruses (setting [2]) were 47.1% and 42.4%, respectively. The viability at 52 h, 3 μM in the data set “in vitro” was found to be 111%.

Take `O=C(Nc1ccc(Cl)c(Cl)c1)Nc1ccccc1C(=O)O` [Compound 5963375, 2-({[(3,4-dichlorophenyl)amino]carbonyl}amino)benzoic acid]: the figures for the activity at 3 µM with HPV16 pseudoviruses (setting [1]) and with HPV16 pseudoviruses (setting [2]) were 14.2% and 20.2%, respectively.
